In patent US10793590B2, “Antifungal compounds” (President and Fellow of Harvard College, priority 2016, dated 2020):
Converted amounts (≈) assume the structure as drawn.

Tests used:
[1] = system: Candida albicans; assay: Liquid broth minimum inhibitory concentration; format: cell-based; conditions: YPD media, 30° C., OD600 at 14 h, 1% DMSO, read-out: MIC against Candida albicans
Description: (§1) Determination of minimum inhibitory concentration: Fresh DMSO solutions of selvarmicin and nystatin were prepared as serial dilutions and dispensed into clear flat-bottom 96-well plates in four replicates. A starting inoculum of the appropriate test strain in media was added to each well to yield a final concentration of 1% DMSO by volume. The plates were incubated at 30° C. with shaking at 200 rpm. Growth was assayed by OD600 readings taken on a M5 plate reader (Molecular Devices). For E. coli, B. subtilis, and M. luteus, the starting inoculum consisted of an overnight culture in LB diluted into LB media at 10 μL/mL and final OD readings were taken at 22 h. For C. albicans and S. cerevisiae, the starting inoculum consisted of an overnight culture in YPD media diluted to an OD600 of 0.05 in YPD media and final OD readings were taken at 14 h. For T. harzianum and A. fumigatus, the starting inoculum consisted of a stock of concentrated conidia diluted into potato dextrose broth at 2 uL/mL and final OD readings were taken at 22 h. Using Prism (GraphPad), the OD data were normalized and fit to a Gompertz function, from which MIC values were extracted.
(§2) Selvamicin's improved solubility, despite its lack of charged carboxylate and ammonium groups, is probably contributed by its second sugar moiety.

[2] = system: B. subtilis; assay: Liquid broth activity testing against bacteria; format: cell-based; conditions: LB media, OD at 22 h
Description: as §1, §2

[3] = system: E. coli; assay: Liquid broth activity testing against bacteria; format: cell-based; conditions: LB media, OD at 22 h
Description: as §1, §2

[4] = system: M. luteus; assay: Liquid broth activity testing against bacteria; format: cell-based; conditions: LB media, OD at 22 h
Description: as §1, §2

[5] = Solubility determination; format: physicochemical; conditions: HEPES buffer, aqueous buffer, thermodynamic from solid; 5 mM HEPES pH 7.4, 22° C., UV-vis absorbance
Description: Solubility determination: Solubility for selvamicin and nystatin was measured with minor modifications from a previously reported protocol. 1 Briefly, in microcentrifuge tubes, 20 μL […] HEPES (pH=7.4) was added to 2.5 mg of selvamicin and of nystatin and the resulting suspensions were vortexed vigorously for 30 min at 22° C. The tubes were centrifuged, the resulting supernatants were diluted in HEPES buffer, and concentrations were determined by UV-vis absorbance (306 nm for nystatin and 335 nm for selvamicin).

[6] = Isothermal calorimetry sterol binding assay; conditions: 150 μM polyene, POPC LUVs with 11 mol % ergosterol, 25° C.
Description: Isothermal Calorimetry Sterol Binding Assay:
Large unilamellar vesicle (LUV) preparation: In a glass vial, a 25 mg/mL solution of palmitoyl oleoyl phosphatidylcholine (POPC) in chloroform (0.96 mL, Avanti Polar Lipids) was mixed with a freshly prepared 4 mg/mL solution of the appropriate sterol (ergosterol or cholesterol. Aldrich) in chloroform (0.35 mL). The sterol solution was omitted for preparation of sterol-free POPC LUVs. The resulting solution was evaporated to dryness in vacuo to yield a lipid film, which was placed under high vacuum for at least 5 h. To this film was added 1 mL 5 mM HEPES (pH adjusted to 7.4 with KOH) and the resulting suspension was vortexed for 3 min. This lipid suspension was loaded into a syringe and passed through a 0.1 μM filter (Whatman) 21 times using an Avanti Polar Lipids Mini-Extruder to yield an LUN suspension (32 mM POPC, 11 mol % sterol; assumed no loss during extrusion).
Isothermal calorimetry (ITC) experiments: Solutions of polyene (150 μM selvamicin or nystatin) in 1% DMSO/5 mM HEPES (pH=7.4) were prepared by dilution from a 1.5 mM solution in DMSO. 8 mM POPC LUV suspensions in 1% DMSO/5 mM HEPES (pH=7.4) were prepared by dilution of the above LUV suspensions with HEPES buffer and DMSO. […]

[7] = system: Candida albicans K1; assay: Neutropenic mouse disseminated candidiasis model (Example 8); format: in vivo; conditions: 80 mg/kg single intraperitoneal dose 2 h after infection, read 8 h after therapy
Description: (§3) Selvamicin was tested in the neutropenic mouse disseminated candidiasis model. Briefly, mice were infected with an inoculum of 5.70 log 10 cfu/ml of Candida albicans K1. Two hours after infection, the mice were administered either saline or selvamicin at 80 mg/kg via the intraperitoneal route. Eight hours after therapy, the burden of Candida albicans in mouse kidneys was measured by viable plate counts of organ homogenates.

[8] = Animal toxicity in neutropenic mouse disseminated candidiasis model (Example 8); format: in vivo; conditions: 80 mg/kg intraperitoneal, neutropenic mice
Description: as §3

[9] = system: C. albicans; assay: Neutropenic mouse disseminated candidiasis model (Example 9); format: in vivo; conditions: 20 mg/kg or 80 mg/kg intraperitoneal
Description: (§4) Selvamicin was tested in the neutropenic mouse disseminated candidiasis model. Mice were infected with an inoculum of C. albicans, C. glabrata, and C. auris. After infection, the mice were administered either saline or selvaimicin at 20 mg/kg or 80 mg/kg via an intraperitoneal route. After therapy, the burden of Candida albicans in mouse kidneys was measured by viable plate counts of organ homogenates.

[10] = system: C. auris; assay: as above; format: in vivo; conditions: 20 mg/kg or 80 mg/kg intraperitoneal
Description: as §4

[11] = system: C. glabrata; assay: as above; format: in vivo; conditions: 20 mg/kg or 80 mg/kg intraperitoneal
Description: as §4

Compound | MIC [1] | Activity against Gram-positive bacteria (B. subtilis) [2] | Activity against Gram-negative bacteria (E. coli) [3] | Activity against Gram-positive bacteria (M. luteus) [4] | solubility at 30 min [5] | Binding to ergosterol-containing vesicles (ITC, heats evolved) [6] | Efficacy: burden of Candida albicans in mouse kidneys [7] | Animal toxicity [8] | Efficacy in preventing C. albicans growth (kidney burden) [9] | Efficacy in preventing C. auris growth (kidney burden) [10] | Efficacy in preventing C. glabrata growth (kidney burden) [11]
CCC1OC(=O)CC[C@@H](O)[C@H](O)C[C@H](O)C[C@]2(O)C[C@H](O)[C@](C)(O)C(CC(O[C@@H]3O[C@H](C)[C@@H](O)[C@H](O)[C@@H]3O)/C=C/C=C/C=C/C=C/C=C/C(C)C(O[C@H]3C[C@@H](O)[C@@H](OC)[C@H](C)O3)C1C)O2 (stereo partly shown) [Selvamicin] | 23 µM (≈ 21.4 µg/mL) | No activity was detected | No activity was detected | No activity was detected | 2300 µM (≈ 2140 µg/mL) | no evidence for binding | demonstrated efficacy in preventing Candida albicans growth | No animal toxicity was apparent | demonstrated efficacy | demonstrated efficacy | demonstrated efficacy
C[C@@H]1[C@H](O)[C@@H](C)/C=C/C=C/CC/C=C/C=C/C=C/C=C/[C@H](O[C@H]2O[C@H](C)[C@@H](O)[C@H](N)[C@@H]2O)C[C@@H]2O[C@](O)(C[C@@H](O)[C@H](O)CC[C@@H](O)C[C@@H](O)C[C@@H](O)CC(=O)O[C@H]1C)C[C@H](O)[C@H]2C(=O)O [nystatin A1, reference compound] | 1 µM (≈ 0.926 µg/mL) |  |  |  | 300 µM (≈ 278 µg/mL) |  |  |  |  |  | 
